{
  "source": "paper PMC9137037",
  "about": "(Frontiers in Oncology, 2022)",
  "key": {"beagle dogs": {"system": "beagle dogs", "test": "Antibody isotyping of sera of immunized beagle dogs", "assay_type": "in vivo, dog", "settings": "dogs #1-#3"}, "[1]": {"target": "T1, human recombinant protein PD-1 (Homo sapiens, UniProt Q15116)", "T1 construct": "His tag; purchased ACROBiosystems PD1-H5221", "T1 sequence (Q15116 25-288)": "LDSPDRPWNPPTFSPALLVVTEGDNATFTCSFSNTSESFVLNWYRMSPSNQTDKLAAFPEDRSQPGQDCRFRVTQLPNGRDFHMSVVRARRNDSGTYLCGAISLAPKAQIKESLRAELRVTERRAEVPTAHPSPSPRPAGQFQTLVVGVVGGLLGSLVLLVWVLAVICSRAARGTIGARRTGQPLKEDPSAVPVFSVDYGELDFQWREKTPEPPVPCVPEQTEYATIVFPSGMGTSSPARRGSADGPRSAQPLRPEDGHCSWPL", "test": "ELISA activity of dog sera with human recombinant protein PD-1", "assay_type": "binding", "settings": "Figure 3F", "protocol": "(§1) For the detection of PD-1 human recombinant protein activity, the human recombinant protein PD-1 (PD1-H5221, HIS tag; ACROBiosystems, Newark, DE, USA) 100 μl at the concentration of […] were coated on the 96 wells plate as an antigen. The following procedures were performed as the description of ELISA.\nIn order to investigate the diversity of the antibody produced by immunized dogs, isotypes IgM, IgA, IgG1, and IgG2 in dogs were detected after being immunized with the peptide vaccine ( Figure 3E ). In MVF-PD-1(92-110) vaccine-treated dogs, the majority of isotype is IgG2, which ranged from 74% to 81%, the IgG1 range from 12% to 18%, IgM from 5% to 9%, and IgA less than 2%. Peptide sera from dogs #1, 2, and 3 were used to detect the antibody activity against human recombinant protein PD-1."}, "nivolumab": {"system": "nivolumab", "settings": "surface plasmon resonance; cited from earlier work", "protocol": "(§2) The PD-1 amino acids 92-110 (^92[…]^101[…]^110) chosen for evaluation were selected based on the crystal structure of PD-1:PD-L1. This PD-1 sequence was synthesized as a chimeric construct with a promiscuous T-cell helper epitope derived from the measles virus fusion protein (MVF, amino acids 288-302). The specificity of the selected PD-1 peptide was determined by surface plasmon resonance spectroscopy."}, "rhPD-L1": {"system": "rhPD-L1", "settings": "surface plasmon resonance; cited from earlier work", "protocol": "as §2"}, "[2]": {"target": "T2, recombinant human PD-1 (rhPD-1) (Homo sapiens, UniProt Q15116)", "T2 construct": "His tag; purchased ACROBiosystems PD1-H5221", "T2 sequence (Q15116 25-288)": "as above", "test": "ELISA of monkey serum with rhPD-1 as capture agent", "assay_type": "binding", "settings": "monkey sera", "protocol": "as §1\nIn a separate experiment, these monkey serum samples were tested using recombinant human PD-1 (rhPD-1) as the capture agent. […] See Table 2 for summary of mouse, dog, and non-human primate experiments."}, "cynomolgus monkeys": {"system": "cynomolgus monkeys", "test": "GLP repeat-dose toxicology, second monkey study No.00213519", "assay_type": "in vivo, Macaca fascicularis", "protocol": "The non-human primate studies were carried out by the Charles River Laboratories (Ashland, OH USA). All the cynomolgus monkeys (Macaca fascicularis of Chinese origin) were obtained from Charles River Laboratories (Houston, TX, USA). In brief, the animals were approximately 2–4 years old and at the body weight between 2.2 and 3.1 kg at the initial dosing. The animals were kept at the temperature between 19°C and 24°C, humidity 30%–70%, and with 12 h light and 12 h dark light cycle. The Good manufacturing practice (GMP)-manufactured vaccine was used in the non-human primate study. […] Similar to mouse and dog dosing preparation, after the emulsion was prepared, a drop test was performed on each time of dosing to confirm that the emulsion had been prepared properly. […] The dose volume was split approximately equally across two different sites; 0.5 ml of the dose was intramuscularly (IM) injected into the right posterior lateral thigh, the left dosing was injected into the left site. All the animals’ body weights were monitored weekly after receiving. After each immunization, the animal body temperature was tested 6 and 24 h post each immunization. […] The animal bleed were collected before each time of immunization to monitor the antibody titers. There were two sets of non-human primate studies conducted. The first set of monkey study No.00213515 had 24 monkeys, 12 males, and 12 females divided into 4 groups: vehicle control, low dose 0.5 mg, medium dose 2 mg, and high dose 5 mg. There were 16 monkeys (8 males and 8 females) in the second set of monkey study No. 00213519. The monkeys in the four groups were vaccinated as follows: vehicle control, low dose 25 μg, medium dose 100 μg, and high dose 250 μg.\nIn the second set of non-human primate study (#00213519), 16 non-human primates, cynomolgus monkeys, were used. The monkeys were immunized […] at 2-week intervals represented by 1Y, 2Y, 3Y, and 4Y at days 1, 15, 29, and 43, respectively.The bleed were collected at day 1 (pre), day 29 (2Y+2/3Y), day 43 (3Y+2 and 4Y), and day 57 (4Y+2) ( Figure 4C ). There were four groups with 4 monkeys (2 males and 2 females) in each group. Group 1 was the control group, which was treated with only ISA 720 and ddwater. […] The Immunogenicity of peptide-based vaccines in non-human primates was detected by using ELISA to detect antibody titers in the sera of both non-human primate studies ( Figures 4E, F ). The relative high antibody responses have been established in each individual cynomolgus monkey.\nA slight increase in anti-APi2568 antibody titers was observed between day 29 and day 43, with no apparent reduction in titers by […]."}, "BALB/c mice": {"system": "BALB/c mice", "test": "Observation for autoimmune symptoms in immunized mice", "assay_type": "in vivo, mouse", "description": "The common autoimmune symptoms are identified as follows: skin rashes, low-grade fever, achy muscles, fatigue, hair loss, trouble concentrating, and so on. […] For the dogs, the high volume of ISA 720 caused a lesion near the injection site that might result in mild swelling, but the symptoms were resolved weeks after. The immunized monkeys had some swelling at or near the site of IM injection, especially after the second or third dose and more frequent in females than males. In all the clinical observations, these animals either had recovered or were in the process of recovering. Despite these adverse clinical findings, all of them were active and in good condition throughout the project. Overall, there were no observable signs or uncontrolled autoimmune symptoms."}, "[3]": {"settings": "0, 25, 100, 250 µg/dose, days 1, 15, 29, 43, 14-day recovery"}},
  "note": "Where no end group is shown, it is not given here.",
  "data": [
    {"sequence": "KLLSLIKGVIVHRLEGVEGPSLGAISLAPKAQIKESLRAEL [MVF-PD-1(92-110)]", "values": [
      {"measurement": "IgA isotype percentage", "setting": "beagle dogs", "result": "less than 2%"},
      {"measurement": "activity against recombinant PD-1 protein (summary)", "setting": "[1]", "result": "high activity against recombinant PD-1 protein"},
      {"measurement": "recognize and bind nivolumab", "setting": "nivolumab", "result": "able to recognize and bind"},
      {"measurement": "recognize and bind rhPD-L1", "setting": "rhPD-L1", "result": "able to recognize and bind"},
      {"measurement": "recognition of rhPD-1 by anti-APi2568 antibody in monkey serum (summary)", "setting": "[2]; days 29, 43, 57", "result": "high binding ability against rh-PD-1"},
      {"measurement": "recognition of rhPD-1 by anti-APi2568 antibody in monkey serum (summary)", "setting": "[2]; days 29, 43, 57, listed as APi2568", "result": "some of the anti-APi2568 antibody formed in monkeys recognized rhPD-1"},
      {"measurement": "effects on body weight, food consumption, body temperature, clinical pathology parameters, or organ weight", "setting": "cynomolgus monkeys; [3]", "result": "No APi2568-related adverse effects"},
      {"measurement": "survival", "setting": "cynomolgus monkeys; [3]", "result": "All monkeys survived to the scheduled necropsy"},
      {"measurement": "NOAEL", "setting": "cynomolgus monkeys; 25, 100, 250 µg/dose IM as PD1-Vaxx, male and female cynomolgus monkeys", "result": 100, "unit": "µg/dose"},
      {"measurement": "safety (summary)", "setting": "cynomolgus monkeys; monkey 2nd set", "result": "safe"},
      {"measurement": "microscopic finding in the biceps femoris IM injection site", "setting": "cynomolgus monkeys; single 250 µg/dose group female monkey, 4 doses at 2-week intervals", "result": "adverse necrosis"},
      {"measurement": "induction of autoimmune responses", "setting": "BALB/c mice", "result": "has not been observed"}
    ]}
  ]
}
